Data from patent US7537906B2, “Apoptosis inducer and method of screening for a substance inhibiting acylated homoserine lactone” (priority 2003, dated 2009).

What was measured:
Akt = Akt activity (phospho-Akt) by Western blot in CaCo-2 cells; assay type: cell-based, human
Description: CaCo-2, the carcinoma cell line of human colon cancer, was purchased from American Type Culture Collection (ATCC), and cultured at 37° C. in the presence of 5% CO2 using a DMEM medium containing 10% FCS, 1% NEAA, and 1% P/S (100 units/ml penicillin and 100 μg/ml streptomycin).
6×10^5 CaCo-2 cells were inoculated per dish using 6 cm dishes (NUNC), washed twice with phosphate buffered saline (PBS) (-), and then cultured for 24 hours in a serum-free DMEM medium containing 1% NEAA. Subsequently, at a final concentration of 100 μM, homoserine lactone hydrochloride, N-butyryl-L-homoserine lactone, N-(3-oxohexanoyl)-L-homoserine lactone and N-(3-oxododecanoyl)-L-homoserine lactone were each added, and then each solution was allowed to react for 10 minutes. In addition, purified acylated homoserine lactone that was used herein had been dissolved in DMSO in a concentration 400 times higher than the target final concentration, and then subjected to filter sterilization (φ 0.22 μm). DMSO at a final concentration of 0.25% was used as a control. In addition, α-tubulin was used as an internal standard.
After reaction, the product was washed twice with cold PBS (-), and then frozen at −80° C. The cells were thawed on ice, 200 μl of a lysis buffer (50 mM HEPES, pH7.5, 50 mM NaCl, 1 mM EDTA, 1.5 mM MgCl2, 1% Triton X-100, 10% glycerine, 10 mM sodium pyrophosphate, 1 mM Na3VO4, 100 mM NaF, 1 mM PMSF, 10 μg/ml aprotinin and 10 μg/ml leupeptin) was added, and then the cells were scraped off using a scraper. The cells were allowed to stand on ice for 20 minutes, and then centrifuged at 14,000 rpm at 4° C. for 15 minutes, thereby collecting the supernatant. Concentration of the collected protein was measured, and protein equivalent to 50 μg was subjected to SDS-PAGE. After electrophoresis, the product was blotted on a PVDF membrane. When phospho-Akt was measured, blocking was carried out with 5% skim milk/Tris-buffered saline containing 0.1% Tween 20 (TBS-T), and the anti-phospho-Akt ([…]) antibody and the HRP-labeled anti-rabbit IgG antibody were used as a primary antibody and a secondary antibody, respectively. For α-tubulin used as an internal standard, blocking was carried out with 5% bovine serum albumin (BSA)/TBS-T, and the anti-α-tubulin (Ab-1) and the HRP-labeled anti-mouse IgG antibody were used as a primary antibody and a secondary antibody, respectively. For band detection, Renaissance™ Western Blot Chemiluminescence […] Reagent Plus (NEN) or Western Blotting Luminol Reagent (SANTA CRUZ BIOTECHNOLOGY) was used. […] In addition in the figure that is described below, HSL means homoserine lactone hydrochloride, C4-HSL means N-butyryl-L-homoserine lactone, 3-oxo-C6-HSL means N-(3-oxohexanoyl)-L-homoserine lactone, and 3-oxo-C12-HSL means N-(3-oxododecanoyl)-L-homoserine lactone.
After cell culture, N-(3-oxododecanoyl)-L-homoserine lactones with final concentrations of 0 μM (0.25% DMSO), 1 μM, 10 μM, 30 μM and 100 μM were each added. Akt activity was analyzed by Western blot in a manner similar to that used in (1), except for carrying out reaction for 10 minutes (FIG. 2).
After cell culture, N-(3-oxododecanoyl)-L-homoserine lactones with final concentrations of 30 μM and 100 μM were each added. For each case, Akt activity was measured by Western blot in a manner similar to that in (1), except for carrying out stimulation with acylated homoserine lactone in a short time course of 0, 5, 10, 30 and 60 minutes (FIG. 4), and in a long time course of 0, 10 minutes, 60 minutes, 2 hours, 4 hours, 6 hours, 8 hours and 10 hours (FIG. 5). In the case of stimulation at 30 μM, the inhibition of Akt activity peaked at 5 minutes, and lasted until 60 minutes after stimulation, and then returned to the base level within 2 hours. On the other hand, in the case of stimulation at […], the inhibition of Akt activity peaked at 5 minutes and lasted until 6 hours after stimulation. […]

caspase-3 = assay: Caspase activity by Western blot (cleaved caspase-3) in CaCo-2 cells; assay type: cell-based, human
Description: The activities of caspase (caspase-3 and caspase-9) and PARP (poly-ADP ribose polymerase) were measured in a manner similar to those in Examples 1 and 2 by Western blot analysis using each of anti-activated (cleaved) caspase antibodies, that is, an anti-cleaved caspase-3 antibody, an anti-cleaved caspase-9 antibody (D330) and an anti-cleaved PARP antibody (D214).
N-(3-oxododecanoyl)-L-homoserine lactones with final concentrations of 30 μM and 100 μM were each added to cultured CaCo-2 cells. Caspase-3, caspase-9 and PARP activities were analyzed over time by Western blot at 0 hours, 1 hour, 2 hours, 4 hours, 6 hours, 8 hours and 10 hours after culture. […] Whereas at 30 μM, activated caspase-3 began to be detected 1 hour after stimulation and the activity lasted until 4 hours after stimulation, at 100 μM the activity peaked at 6 hours and lasted until 10 hours after stimulation. Cleaved caspase-9 and cleaved PARP were detected by reprobing each membrane.
Next, 3 hours of reaction with N-(3-oxododecanoyl)-L-homoserine lactone was carried out at concentrations of 0, 1, 10, 30, and 100 μM, and then caspase and PARP activities were measured.

IL-12 = settings: mouse macrophage culture system; cited from earlier work

In the case of CCCCCCCCCC(=O)CC(=O)N[C@H]1CCOC1=O [N-(3-oxododecanoyl)-L-homoserine lactone], the “Akt activity, % of that where no stimulation was provided” value (Akt; 10 μM, 10 minutes) was 79%, the “Akt activity, % of that where no stimulation was provided” value (Akt; 30 μM, 10 minutes) was 31% and the “Akt activity, % of that where no stimulation was provided” value (Akt; 100 μM, 10 minutes) was 14%. For the same compound, the “level of phosphorylated Akt” value (Akt; 100 μM, 10 minutes) was “significantly decreased”, the “concentration at which levels of phosphorylated Akt significantly decreased” value (Akt; 10 minutes) was at least 10 µM and the “time at which inhibition of Akt activity peaked” value (“time at which inhibition” for short) (Akt; stimulation at 10 μM) was 5 min. The “inhibition of Akt activity lasted until (after stimulation)” value (Akt; stimulation at 30 μM) was 60 min, the “time at which inhibition” value (Akt; stimulation at 30 μM) was 5 min and the “time for Akt activity to return to the base level” value (Akt; stimulation at 30 μM) was at most 2 h. For the same compound, the “inhibition of Akt activity lasted until (after stimulation)” value (Akt; stimulation at 100 μM) was 360 min, the “time at which inhibition” value (Akt; stimulation at 100 μM) was 5 min and the “caspase-3 activity lasted until (after stimulation)” value (caspase-3; 30 μM) was 4 h. For the same compound, the “time at which activated caspase-3 began to be detected after stimulation” value (caspase-3; 30 μM) was 1 h, the “caspase-3 activity lasted until (after stimulation)” value (caspase-3; 100 μM) was 10 h and the “time of peak caspase-3 activity” value (caspase-3; 100 μM) was 6 h. For the same compound, the “concentration at which cleaved caspase (caspase-3) was detected” value (caspase-3; 3 hours of reaction, 0, 1, 10, 30 and 100 μM) was at least 30 µM and the IL-12 production (IL-12) was “promotes”.
